The values that follow come from patent publication US5290790A, “4-(4-imidazolyl) piperidines substituted at position 1, their preparation and also their therapeutic applications” (National De La Sante et De La Recherche Medicale, priority 1990, dated 1994).

Where a name gives a salt, the structure may show the parent alone. Read-outs that look alike come from different tables or passages of the source.

Test [1] concerns the target T1, H3 histaminergic receptors (Rattus norvegicus, UniProt Q9QYN8). Nature of the test: Reversal by H3 antagonists of exogenous histamine-induced inhibition of histamine release in sections of rat cerebral cortex (Arrang et al.). Type of test: biochemical. The source says:
This method employs sections of rat cerebral cortex, and made possible the pharmacological characterisation of the H3 receptors (Nature, 1987, 327; 117-123).
This effect is progressively reversed in the presence of H3 antagonists such as the compounds of the invention, added at increasing concentrations. […]

In test [2] the target is T1, H3 histaminergic receptors. Conditions: histamine at a concentration of 1 μM; cited from earlier work.
Setting [3] is: read-out: Apparent dissociation constant (Ki) as histamine antagonists at receptors of rat brain, sections of rat cerebral cortex, exogenous histamine 1 μM, apparent Ki calculated from IC50 according to Cheng and Prusoff with histamine EC=0.1 μM.

T1 sequence (Q9QYN8 whole entry): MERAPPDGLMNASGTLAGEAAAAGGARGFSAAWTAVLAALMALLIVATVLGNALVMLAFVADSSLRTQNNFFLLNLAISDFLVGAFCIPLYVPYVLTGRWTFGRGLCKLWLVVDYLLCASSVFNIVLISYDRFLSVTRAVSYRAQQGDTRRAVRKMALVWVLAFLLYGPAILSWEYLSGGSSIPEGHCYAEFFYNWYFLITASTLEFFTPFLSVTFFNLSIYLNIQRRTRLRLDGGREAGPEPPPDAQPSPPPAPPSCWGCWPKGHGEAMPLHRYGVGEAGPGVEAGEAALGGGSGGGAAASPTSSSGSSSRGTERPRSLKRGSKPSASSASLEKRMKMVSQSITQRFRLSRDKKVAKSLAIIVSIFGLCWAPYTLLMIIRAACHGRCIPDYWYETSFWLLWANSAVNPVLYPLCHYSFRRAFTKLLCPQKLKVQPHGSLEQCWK

In the case of `O=C(C1CC1c1ccccc1)N1CCC(c2c[nH]cn2)CC1` (centres unmarked) [Compound 13], the Ki in test [1] is 20 nM.
Regarding `O=C(CCCOc1ccccc1)N1CCC(c2cn(C(=O)Nc3ccc(Cl)cc3Cl)cn2)CC1` [Compound 92, 1-(4-Phenoxybutylryl)-4-[1-(2,4-Dichlorophenylaminocarbonyl)-4-imidazolyl]piperidine], in test [1] (setting [3]), the Ki is 34 nM.
As for `O=C(CC1CC2CCC1C2)N1CCC(c2c[nH]cn2)CC1` (centres unmarked) [Compound 23, 1-(Norbornylmethylcarbonyl)-4-(1H-imidazol-4-yl)piperidine], the Ki in test [1] amounted to 23 nM.
The same measure, in the same setting: the same measure for `O=C(NCCC1CCCCC1)N1CCC(c2c[nH]cn2)CC1` [Compound 77]: 68 nM.
On the same count and under the same terms, as for `OC(=CCCc1ccccc1)N1CCC(c2c[nH]cn2)CC1` [Compound 59, 1-(1-Hydroxy-4-phenyl-1-buten-1-yl)-4-(4-imidazolyl)piperidine (Dihydrochloride)], the figure is 47 nM.
The same measure, in the same setting: as for `O=C(NCCCc1ccccc1)N1CCC(c2c[nH]cn2)CC1` [Compound 83], the figure is 77 nM.
Take `O=C(N1CCC(c2c[nH]cn2)CC1)C12CC3CC(CC(C3)C1)C2` [Compound 8]: the Ki in test [1] (setting [3]) is 63 nM.
Regarding `O=C(CCCCCCc1ccccc1)N1CCC(c2c[nH]cn2)CC1` [Compound 48], the Ki in test [1] came out at 65 nM.
On the same count and under the same terms, the same measure for `O=C(CC1CCC1)N1CCC(c2c[nH]cn2)CC1` [Compound 20]: 59 nM.
The same measure, in the same setting: the same measure for `CCCCCCC(=O)N1CCC(c2cnc[nH]2)CC1` [Compound 1]: 48 nM; for `O=C(CCc1ccccc1)N1CCC(c2c[nH]cn2)CC1` [Compound 38, 1-(3-Phenylpropionyl)-4-(1H-imidazol-4-yl)piperidine (Oxalate)]: 84 nM; for `OC(=CCCCCCCCCCOc1ccccc1)N1CCC(c2c[nH]cn2)CC1` [Compound 60, 1-(1-Hydroxy-11-phenoxy-1-undecen-1-yl)-4-(4-imidazolyl)piperidine (dihydrochloride)]: 120 nM.
`NCCc1c[nH]cn1` [histamine]: the “Inhibition of release by exogenous histamine” value in test [2] is reported as “approximately 50%”.
`O=C(CCCc1cccs1)N1CCC(c2c[nH]cn2)CC1` [Compound 43]: the Ki in test [1] amounted to 35 nM.
